Experimental findings from PubChem BioAssay (NCI) are described below.

“And” between values parts separate entries of the source, which are not always exact repeats. Equal values may be shown once.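 Five concentrations, 48 hours, 96-well plates. GI50 is the concentration that inhibits growth by half. The concentration for full growth arrest is given as TGI.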 A value given as a limit tells only on which side of the number the result lay.

Holding throughout (test): DTP human tumour cell line panel, 48 h
The subject of assay [1] is COLO 205 colon.
In assay [2] the test system is UO-31 renal.
The test system of assay [3] is SR leukemia.
Assay [4] concerns 786-0 renal.
Assay [5] deals with LOX IMVI melanoma.
Assay [6] has as its system U251 CNS.
The test system of assay [7] is K-562 leukemia.
The test system of assay [8] is SF-295 CNS.
For assay [9], the system named is HCT-15 colon.
Assay [10] relates to MDA-MB-435.

The GI50 is the concentration giving 50% growth inhibition. As usually defined, the TGI is the concentration giving total growth inhibition. Consider `CCN(CC)CCN(CC)CC.CCN(CC)CCN(CC)CC.[Cu+2].[Cu+2].[O-][Cl+3]([O-])([O-])[O-].[OH3+].[OH3+]`, for which the GI50 in assay [1] is above 100000 nM; in assay [2], above 100000 nM; in assay [3], above 100000 nM; in [4], 46000 nM; in assay [5], 14.4 µM; in assay [6] it was 17200 nM. Also, the GI50 in assay [7] was 53100 nM; in assay [8] it was 34400 nM. In addition, the TGI in assay [1] is above 100 µM; in assay [2], above 100 µM; in assay [3], above 100 µM; in [4], above 100 µM; in [5], 45.7 µM; in assay [6] it was 32.1 µM. The TGI in assay [7] was above 100 µM; in assay [8] it was 98.9 µM.
In the case of `CSC(=O)C[C@@]12O[C@@H]([C@@H](C)C3CCC4[C@@H]5C(O)CC6=CC(=O)C=C[C@]6(C)C5CC[C@@]43C)C[C@](C)(O1)C(C)(C)O2` (stereo partly drawn), the TGI in [2] is 24.8 µM; in [3], 34.8 µM; in [4], 30.2 µM; in [5], 25.1 µM; in assay [6], 25.2 µM; in assay [9], 32 µM. Further, the concentration for total growth inhibition (TGI) in [7] stood at 19.9 µM; in assay [8], 28.6 µM.
Regarding `Nc1ncc(-c2ccc3ncnc(Nc4cccc(Cl)c4)c3c2)cn1`, the GI50 is 452 nM in assay [2]; 268 nM in [3]; 339 nM and 1780 nM in assay [4]; 538 nM in assay [6]; 217 nM and 1570 nM in assay [9]; 216 nM in [8]. Moreover, the TGI in assay [2], in assay [4] and in [9] was above 100 µM each time.
Take `Cc1ccc(NCC2(/N=C/c3ccccc3)OC(CO)C(O)C2O)cc1` (stereo not drawn): the TGI in [1] was above 100 µM; in assay [2], above 100 µM; in assay [3], above 100 µM; in assay [4] it was above 100 µM; in [6], 83.7 µM; in assay [9] it was above 100 µM. Besides, the TGI in assay [7] and in assay [8] was above 100 µM throughout.
In the case of `C(=N\Nc1ncc(-c2cc3cc4c(cc3o2)OCO4)s1)/c1ccco1`, the GI50 in assay [2] is 590 nM; in [3], 1290 nM; in assay [4] it was 1970 nM; in assay [10], 2860 nM; in assay [5] it was 1.35 µM; in [6], 2900 nM. Also, the GI50 in [7] is 2100 nM; in assay [8], 2780 nM. Further, the TGI in [2] was determined as 3.68 µM; in assay [3], 25.3 µM; in [4] it was 4.94 µM; in [10], 10.2 µM; in assay [5], 2.76 µM; in assay [6], 14.5 µM. Further, the TGI in assay [7] was above 100 µM; in assay [8], 11.5 µM.
Regarding `Fc1cccc(COc2ccc(Nc3ncnc4onc(-c5ccccc5)c34)cc2)c1`, the GI50 in assay [1] was 202 nM; in [2], 3000 nM; in assay [3], 88.4 nM; in assay [4], 691 nM; in [5] it was 0.125 µM; in assay [6] it was 215 nM. The GI50 in assay [9] was 2430 nM; in assay [7], 101 nM; in assay [8], 405 nM. For the same compound, the TGI in [1] is 0.787 µM; in assay [2] it was 26.8 µM; in assay [3], above 100 µM; in [4], 21.2 µM; in assay [5], above 100 µM; in assay [6], above 86.8 µM. The figures for the TGI in assay [9], in assay [7] and in assay [8] were above 100 µM, above 100 µM and above 26.7 µM, respectively.
`Cc1ccc(/C=C/C(=O)c2ccc(Cl)c(Cl)c2)cc1`: the TGI in assay [1], in [2], in assay [3], in [4], in assay [5] and in assay [6] was above 100 µM throughout. The concentration for total growth inhibition (TGI) in [7] and in [8] was above 100 µM each time.
In the case of `CCC[CH2][Sn](=[O])[CH2]CCC`, the GI50 in [1] was above 50000 nM; in assay [2] it was above 50000 nM; in assay [3] it was above 50000 nM; in assay [4], above 50000 nM; in assay [5], above 50 µM; in [6], above 50000 nM. Moreover, the GI50 in assay [9], in assay [7] and in assay [8] was above 50000 nM in each case. Moreover, the TGI in assay [1], in assay [2], in assay [3], in assay [4], in [5] and in assay [6] was above 50 µM throughout. Further, the TGI in assay [9], in [7] and in assay [8] was above 50 µM throughout.
`CC(=O)OC12C(C)=C(C)C(=O)N1c1ccccc1N2C(C)=O` (stereo not drawn): the TGI in [1], in assay [2], in assay [3], in [4], in assay [5] and in assay [6] was above 100 µM each time. Also, the TGI in assay [9], in [7] and in assay [8] was above 100 µM each time.
In the case of `CCOC(=O)c1[nH]c2cc(Cl)ccc2c1[C@@H](C(=O)NC(C)(C)C)N(CC)C(=O)CCCCC#Cc1cccc2c1CN(C1CCC(=O)NC1=O)C2=O` (stereo partly drawn), the GI50 in assay [1] was 30.8 nM; in [2] it was 42.5 nM; in assay [4], 249 nM; in [10], 2340 nM; in assay [5], 3.18 µM; in [6], 1840 nM. The GI50 in assay [9] was 48 nM; in assay [7], 1520 nM; in [8], 1140 nM. In addition, the TGI is 2.53 µM in assay [1]; 2.95 µM in assay [2]; 8.63 µM in assay [4]; above 31.7 µM in [10]; above 86.5 µM in assay [5]; 18.1 µM in assay [6]. For the same compound, the TGI in [9] is above 33.2 µM; in assay [7] it was above 100 µM; in assay [8] it was 3.88 µM.
